Measurements: US8440666B2, “Pyridazinone compounds and P2X7 receptor inhibitors” (Nissan Chemical Industries, Ltd., priority 2007, dated 2013)

Molecular target: T1, Human P2X7 (hP2X7) receptor (Homo sapiens, UniProt Q99572)
T1 construct: myc-His (from the pcDNA3.1/myc-HisA vector); expressed in transfected cells
T1 sequence (Q99572 1-595): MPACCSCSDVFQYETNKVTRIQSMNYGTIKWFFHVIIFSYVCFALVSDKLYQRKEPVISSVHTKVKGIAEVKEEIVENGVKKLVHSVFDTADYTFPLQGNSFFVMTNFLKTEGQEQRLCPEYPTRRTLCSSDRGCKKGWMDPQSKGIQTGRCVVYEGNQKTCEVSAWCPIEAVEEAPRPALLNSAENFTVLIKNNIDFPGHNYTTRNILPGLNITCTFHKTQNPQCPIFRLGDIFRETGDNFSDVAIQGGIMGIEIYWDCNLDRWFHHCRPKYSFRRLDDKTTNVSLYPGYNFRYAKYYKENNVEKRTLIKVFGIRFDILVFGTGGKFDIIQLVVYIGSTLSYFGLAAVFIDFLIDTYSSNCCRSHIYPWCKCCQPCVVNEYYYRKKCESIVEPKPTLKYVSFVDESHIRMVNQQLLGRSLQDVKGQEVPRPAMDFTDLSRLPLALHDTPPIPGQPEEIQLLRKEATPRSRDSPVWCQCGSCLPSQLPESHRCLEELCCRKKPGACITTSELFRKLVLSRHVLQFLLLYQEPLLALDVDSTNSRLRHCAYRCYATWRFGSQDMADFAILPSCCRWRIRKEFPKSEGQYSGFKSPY
Test: Dye assay: BzATP-induced Yo-Pro-1 uptake in HEK293 cells stably expressing hP2X7
Type: cell-based
Conditions: BzATP (0.1 mM)-induced Yo-Pro-1 uptake, compounds 30 min pre-treatment, 90 min incubation
Description: Human P2X7 (hP2×7) was cloned from a normal human brain total RNA library by reverse transcription (using SuperScript II (Invitrogen)) and PCR (using KOD-plus-(TOYOBO)). PCR primers were designed according to hP2X7 sequence registered in GENBANK with a putative amino acid sequence consisting of 595 amino acid residues. The PCR fragments were inserted into pcDNA3.1/myc-HisA vector (Invitrogen) and sequenced for confirmation.
HEK293 cells were transfected with hP2×7/pcDNA3.1/myc-HisA by lipofection, and 1 day later, the cells were treated with 1 mg/mL G418, and resistant cells were selected by appropriately dilution. The resistant cells were cloned by reseeding at a low density.
P2X7 receptor antagonists were screened by a dye uptake assay using HEK293 cells stably expressing hP2×7. Cells were plated on a type I collagen-coated black/clear bottom 96-well plate at 20000 cells/well and a day later, treated with varying concentrations of various test compounds for 30 minutes, then treated with a dye (Yo-Pro-1) (final concentration 2 μM) and BzATP (final concentration 0.1 mM) and incubated for 90 minutes. Then, the fluorescence (indicating the BzATP-induced Yo-Pro-1 uptake mediated by the P2X7 receptor) was measured with a microplate reader (excitation wavelength: 485 nm, emission wavelength: 535 nm). The % inhibition rates were calculated and plotted against the logarithms of the concentrations to determine IC50.

IC50 [nM] | Compound
54 | C[C@@H]1[C@H]2C[C@@H](C[C@H]1Nc1cnn(CC(=O)NC(C#N)c3ccccc3)c(=O)c1Br)C2(C)C (stereo partly shown) [compound 190]
32 | CC(NC(=O)Cn1ncc(N[C@@H]2C[C@@H]3C[C@H]([C@H]2C)C3(C)C)c(Br)c1=O)c1ccc(Cl)cc1 (stereo partly shown) [compound 197]
90 | C[C@@H]1[C@H]2C[C@@H](C[C@H]1Nc1cnn(CC(=O)NC[C@H]3CCCN3C(=O)OC(C)(C)C)c(=O)c1Br)C2(C)C [compound 201]
140 | CONC(=O)Cn1ncc(N[C@@H]2C[C@@H]3C[C@H]([C@H]2C)C3(C)C)c(Br)c1=O [compound 202]
58 | C[C@@H]1[C@H]2C[C@@H](C[C@H]1Nc1cnn(CC(=O)NCc3ccc(O)cc3)c(=O)c1Br)C2(C)C [compound 205]
84 | C[C@@H]1[C@H]2C[C@@H](C[C@H]1Nc1cnn(CC(=O)NCC3CCCCC3)c(=O)c1Br)C2(C)C [compound 208]
42 | CC(C)CNC(=O)Cn1ncc(N[C@@H]2C[C@@H]3C[C@H]([C@H]2C)C3(C)C)c(Br)c1=O [compound 209]
30 | Cc1noc(C)c1CNC(=O)Cn1ncc(N[C@@H]2C[C@@H]3C[C@H]([C@H]2C)C3(C)C)c(Br)c1=O [compound 212]
31 | C[C@@H]1[C@H]2C[C@@H](C[C@H]1Nc1cnn(CC(=O)NCc3ccnc(C#N)c3)c(=O)c1Br)C2(C)C [compound 219]
4.2 | CC(NC(=O)Cn1ncc(NC2CC3CC(C2C)C3(C)C)c(Br)c1=O)c1ccnnc1 (stereo not shown) [compound 220]
4.3 | C[C@@H]1[C@H]2C[C@@H](C[C@H]1Nc1cnn(CC(=O)NCc3ccnc(F)c3)c(=O)c1Br)C2(C)C [compound 222]
84 | C[C@@H]1[C@H]2C[C@@H](C[C@H]1Nc1cnn(CC(=O)Nc3nc(-c4ccncc4)cs3)c(=O)c1Cl)C2(C)C [compound 226]
38 | C[C@@H]1[C@H]2C[C@@H](C[C@H]1Nc1cnn(CC(=O)Nc3cccnc3)c(=O)c1Cl)C2(C)C [compound 227]
37 | C[C@@H]1[C@H]2C[C@@H](C[C@H]1Nc1cnn(CC(=O)NCC3CCOCC3)c(=O)c1Cl)C2(C)C [compound 232]
32 | C[C@@H]1[C@H]2C[C@@H](C[C@H]1Nc1cnn(CC(=O)NCc3ccccc3N(C)C)c(=O)c1Cl)C2(C)C [compound 247]
130 | C[C@@H]1[C@H]2C[C@@H](C[C@H]1Nc1cnn(CC(=O)NCc3ccc(NS(C)(=O)=O)cc3)c(=O)c1Cl)C2(C)C [compound 252]
36 | C[C@@H]1[C@H]2C[C@@H](C[C@H]1Nc1cnn(CC(=O)NC(CCO)c3ccncc3)c(=O)c1Cl)C2(C)C (stereo partly shown) [compound 253]
27 | C[C@@H]1[C@H]2C[C@@H](C[C@H]1Nc1cnn(CC(=O)NCc3ccnc(C#N)c3)c(=O)c1Cl)C2(C)C [compound 254]
3.9 | CC(NC(=O)Cn1ncc(N[C@@H]2C[C@@H]3C[C@H]([C@H]2C)C3(C)C)c(Cl)c1=O)c1ccnc(F)c1 (stereo partly shown) [compound 265]

The remaining lines, values behind:

Compound | IC50 [nM]
C[C@@H]1[C@H]2C[C@@H](C[C@H]1Nc1cnn(CC(=O)NC(CC(N)=O)c3ccncc3)c(=O)c1Br)C2(C)C (stereo partly drawn) [Synthetic Example 428, 3-({[5-Bromo-6-oxo-4-{[(1R,2R,3R,5S)-2,6,6-trimethylbicyclo[3.1.1]hept-3-yl]amino}pyridazin-1(6H)-yl]acetyl}amino)-3-(pyridin-4-yl)propanamide] | 27
O=C(Cn1ncc(SC23CC4CC(CC(C4)C2)C3)c(Br)c1=O)NCc1ccncc1 [Synthetic Example 430, 2-[5-Bromo-6-oxo-4-(tricyclo[3.3.1.1^3,7]dec-1-ylsulfanyl)pyridazin-1-(6H)-yl]-N-(pyridin-4-ylmethyl)acetamide] | 58
CC(C)NC(=O)Cn1ncc(N[C@@H]2C[C@@H]3C[C@H]([C@H]2C)C3(C)C)c(Br)c1=O [compound 2] | 51
C[C@@H]1[C@H]2C[C@@H](C[C@H]1Nc1cnn(CC(=O)NCCc3ccccc3)c(=O)c1Br)C2(C)C [compound 6] | 86
C[C@@H]1[C@H]2C[C@@H](C[C@H]1Nc1cnn(CC(=O)NCc3cccnc3)c(=O)c1Br)C2(C)C [compound 12] | 20
C[C@@H]1[C@H]2C[C@@H](C[C@H]1Nc1cnn(CC(=O)NCc3cnccn3)c(=O)c1Br)C2(C)C [compound 14] | 21
C[C@@H]1[C@H]2C[C@@H](C[C@H]1Nc1cnn(CC(=O)NC3CC3)c(=O)c1Br)C2(C)C [compound 19] | 38
CC(NC(=O)Cn1ncc(N[C@@H]2C[C@@H]3C[C@H]([C@H]2C)C3(C)C)c(Br)c1=O)c1ccccc1 (stereo partly shown) [compound 23] | 34
C[C@@H]1[C@H]2C[C@@H](C[C@H]1NC(=O)Cn1ncc(N[C@@H]3C[C@@H]4C[C@H]([C@H]3C)C4(C)C)c(Br)c1=O)C2(C)C [compound 32] | 63
O=C(Cn1ncc(NC23CC4CC(CC(C4)C2)C3)c(Br)c1=O)NCc1ccncc1 [compound 51] | 16
CC1(C)[C@H]2CC[C@@H](CNc3cnn(CC(=O)NCc4ccncc4)c(=O)c3Br)[C@@H]1C2 [compound 54] | 26
O=C(Cn1ncc(NCC23CC4CC(CC(C4)C2)C3)c(Br)c1=O)NCc1ccncc1 [compound 60] | 71
CC1(C)C2CCC1(C)C(Nc1cnn(CC(=O)NCc3ccncc3)c(=O)c1Br)C2 (stereo not shown) [compound 61] | 41
O=C(Cn1ncc(NC2C3CC4CC(C3)CC2C4)c(Br)c1=O)NCc1ccncc1 (stereo not shown) [compound 74] | 22
C[C@@H]1[C@H]2C[C@@H](C[C@H]1Nc1cnn(CC(=O)Nc3cccc([N+](=O)[O-])c3)c(=O)c1Br)C2(C)C [compound 79] | 46
C[C@@H]1[C@H]2C[C@@H](C[C@H]1Nc1cnn(Cc3ccccn3)c(=O)c1Br)C2(C)C [compound 87] | 62
C[C@@H]1[C@H]2C[C@@H](C[C@H]1Nc1cnn(CC(=O)Nc3ccc4c(c3)C(=O)N(C)C4=O)c(=O)c1Br)C2(C)C [compound 88] | 44

Compound | IC50 [nM]
COc1cc(OC)nc(Cn2ncc(N[C@@H]3C[C@@H]4C[C@H]([C@H]3C)C4(C)C)c(Br)c2=O)n1 [compound 89] | 35
C[C@@H]1[C@H]2C[C@@H](C[C@H]1Nc1cnn(CC(=O)Nc3ccc(N(C)C)cc3)c(=O)c1Br)C2(C)C [compound 94] | 64
C[C@@H]1[C@H]2C[C@@H](C[C@H]1Nc1cnn(CC(=O)NCc3ccnc(Cl)c3)c(=O)c1Br)C2(C)C [compound 99] | 39
COc1cc(CNC(=O)Cn2ncc(N[C@@H]3C[C@@H]4C[C@H]([C@H]3C)C4(C)C)c(Br)c2=O)on1 [compound 100] | 54
C[C@@H]1[C@H]2C[C@@H](C[C@H]1Nc1cnn(CC(=O)NCc3ccncn3)c(=O)c1Br)C2(C)C [compound 103] | 14
COc1cc(CNC(=O)Cn2ncc(N[C@@H]3C[C@@H]4C[C@H]([C@H]3C)C4(C)C)c(Br)c2=O)ccn1 [compound 104] | 57
C[C@@H]1[C@H]2C[C@@H](C[C@H]1Nc1cnn(CC(=O)NCc3cscn3)c(=O)c1Br)C2(C)C [compound 106] | 44
C[C@@H]1[C@H]2C[C@@H](C[C@H]1Nc1cnn(CC(=O)NCc3ccno3)c(=O)c1Br)C2(C)C [compound 127] | 19
CC(C)NC(=O)Cn1ncc(N[C@@H]2C[C@@H]3C[C@H]([C@H]2C)C3(C)C)c(Cl)c1=O [compound 134] | 20
C[C@@H]1[C@H]2C[C@@H](C[C@H]1Nc1cnn(CC(=O)NCc3ccncc3)c(=O)c1Cl)C2(C)C [compound 135] | 4.2
C[C@@H]1[C@H]2C[C@@H](C[C@H]1Nc1cnn(CC(=O)NCc3ccnc4ccccc34)c(=O)c1Br)C2(C)C [compound 167] | 22
C[C@@H]1[C@H]2C[C@@H](C[C@H]1Nc1cnn(CC(=O)NC(c3ccccc3)c3ccncc3)c(=O)c1Br)C2(C)C (stereo partly shown) [compound 169] | 300
Cc1cnccc1CNC(=O)Cn1ncc(N[C@@H]2C[C@@H]3C[C@H]([C@H]2C)C3(C)C)c(Br)c1=O [compound 170] | 3.1
C[C@@H]1[C@H]2C[C@@H](C[C@H]1Nc1cnn(CC(=O)N/C(=N/O)c3ccncc3)c(=O)c1Br)C2(C)C [compound 172] | 310
CC(NC(=O)Cn1ncc(N[C@@H]2C[C@@H]3C[C@H]([C@H]2C)C3(C)C)c(Br)c1=O)c1ccc(F)cc1 (stereo partly shown) [compound 178] | 30
C[C@@H]1[C@H]2C[C@@H](C[C@H]1Nc1cnn(CC(=O)NCc3ccc(C(F)(F)F)c(F)c3)c(=O)c1Br)C2(C)C [compound 183] | 230
